Laboratory results: US9179674B2, “Macrocyclic picolinamide compounds with fungicidal activity” (DOW AGROSCIENCES LLC, priority 2013, dated 2015)
Read-outs that look alike come from different tables or passages of the source.

Legend:
Format in all cases: in vivo
[1] = system: Magnaporthe grisea; Anamorph: Pyricularia oryzae; test: whole plant or invertebrate; conditions: 24 h, read-out: Disease Control PYRIOR 1DP
Cercospora beticola = test: Leaf Spot of Sugar Beets fungicidal activity (CERCBE); conditions: 24 h, 1 Day Protectant, sugar beet, read-out: Disease Control CERCBE 1DP
Experimental: Technical grades of materials were dissolved in acetone, which were then mixed with nine volumes of water containing 110 ppm Triton X-100. The fungicide solutions were applied onto wheat seedlings using an automated booth sprayer to run-off. All sprayed plants were allowed to air dry prior to further handling. All fungicides were evaluated using the aforementioned method for their activity vs. all target diseases. Wheat leaf blotch and brown rust activity were also evaluated using track spray applications, in which case the fungicides were formulated as EC formulations, containing 0.1% Trycol 5941 in the spray solutions. Wheat plants (variety Yuma) were grown from seed in a greenhouse in 50% mineral soil/50% soil-less Metro mix until the first leaf was fully emerged, with 7-10 seedlings per pot. These plants were inoculated with an aqueous spore suspension of Septoria tritici either prior to or after fungicide treatments. After inoculation the plants were kept in 100% relative humidity (one day in a dark dew chamber followed by two to three days in a lighted dew chamber at 20° C.) to permit spores to germinate and infect the leaf. The plants were then transferred to a greenhouse set at 20° C. for disease to develop. When disease symptoms were fully expressed on the 1st leaves of untreated plants, infection levels were assessed on a scale of 0 to 100 percent disease severity. Percent disease control was calculated using the ratio of disease severity on treated plants relative to untreated plants. Evaluation of Fungicidal Activity: Leaf Spot of Sugar Beets (Cercospora beticola; Bayer Code CERCBE) Sugar beet plants (variety HH88) were grown in soil-less Metro mix and trimmed regularly to maintain a uniform plant size prior to test. Plants were inoculated with a spore suspension 24 hr after fungicide treatments. Inoculated plants were kept in a dew chamber at 22° C. for 48 hr then incubated in a greenhouse set at 24° C. under a clear plastic hood with bottom ventilation until disease symptoms were fully expressed. Fungicide formulation, application and disease assessment on the sprayed leaves followed the procedures as described in the Example A.

Puccinia triticina = test: Wheat Brown Rust fungicidal activity (PUCCRT); conditions: Puccinia triticina; for pest or weed control at 100 ppm: rate 100 ppm; for pest or weed control at 121.5 g/ha: rate 121.5 g/H
Procedure, shortened: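 Yuma wheat seedlings at first-leaf stage sprayed to run-off (acetone solution in water with 110 ppm Triton X-100) or track-sprayed as EC with 0.1% Trycol 5941; inoculated with P. triticina spores before or after treatment. Overnight dark dew at 22° C., then greenhouse 24° C.; disease severity 0–100% gives percent control vs untreated.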

[2] = system: Blumeria graminis f.sp. hordei; test: Barley Powdery Mildew fungicidal activity (ERYSGH); conditions: 24 h, 1 Day Protectant, read-out: Disease Control ERYSGH 1DP
Experimental: Technical grades of materials were dissolved in acetone, which were then mixed with nine volumes of water containing 110 ppm Triton X-100. The fungicide solutions were applied onto wheat seedlings using an automated booth sprayer to run-off. All sprayed plants were allowed to air dry prior to further handling. All fungicides were evaluated using the aforementioned method for their activity vs. all target diseases. Wheat leaf blotch and brown rust activity were also evaluated using track spray applications, in which case the fungicides were formulated as EC formulations, containing 0.1% Trycol 5941 in the spray solutions. Wheat plants (variety Yuma) were grown from seed in a greenhouse in 50% mineral soil/50% soil-less Metro mix until the first leaf was fully emerged, with 7-10 seedlings per pot. These plants were inoculated with an aqueous spore suspension of Septoria tritici either prior to or after fungicide treatments. After inoculation the plants were kept in 100% relative humidity (one day in a dark dew chamber followed by two to three days in a lighted dew chamber at 20° C.) to permit spores to germinate and infect the leaf. The plants were then transferred to a greenhouse set at 20° C. for disease to develop. When disease symptoms were fully expressed on the 1st leaves of untreated plants, infection levels were assessed on a scale of 0 to 100 percent disease severity. Percent disease control was calculated using the ratio of disease severity on treated plants relative to untreated plants. Evaluation of Fungicidal Activity: Barley Powdery Mildew (Blumeria graminis fsp. hordei; Synonym: Erysiphe graminis fsp. hordei; Bayer Code […]) Barley seedlings (variety Harrington) were propagated in soil-less Metro mix, with each pot having 8 to 12 plants, and used in the test when first leaf was fully emerged. Test plants were inoculated by dusting with infected stock plants 24 hr after fungicide treatments. After inoculation the plants were kept in a greenhouse set at 20° C. for disease to develop. Fungicide formulation, application and disease assessment on the sprayed leaves followed the procedures as described in the Example A.

[3] = 24 h, 1 Day Protectant, read-out: Disease control PUCCRT 1DP
[4] = 72 h, 3 Day Curative, read-out: Disease control PUCCRT 3DC

SMILES	pest or weed control at 100 ppm [1]	pest or weed control at 100 ppm (Cercospora beticola)	pest or weed control at 100 ppm (Puccinia triticina; [3])	pest or weed control at 121.5 g/ha (Puccinia triticina; [3])	pest or weed control at 100 ppm (Puccinia triticina; [4])	pest or weed control at 121.5 g/ha (Puccinia triticina; [4])	pest or weed control at 100 ppm [2]
COc1ccnc(C(=O)N[C@H]2COC[C@H](CC(F)(F)F)[C@@H](OC3CCCC3)[C@H](C)OC2=O)c1OCOC(C)=O [Compound F105]	80 to 100%	80 to 100%	80 to 100%	80 to 100%	80 to 100%	80 to 100%	
COc1ccnc(C(=O)N[C@H]2COC[C@H](CC3CCCC3)[C@@H](OC(=O)C(C)C)[C@H](C)OC2=O)c1OCOC(C)=O [Compound F114]	80 to 100%	80 to 100%	80 to 100%	80 to 100%	80 to 100%	80 to 100%	80 to 100%
COc1ccnc(C(=O)N[C@H]2COC[C@H](Cc3ccc(C)cc3)[C@@H](OCC(C)C)[C@H](C)OC2=O)c1OCOC(C)=O [Compound F117]	80 to 100%	80 to 100%	80 to 100%	80 to 100%	80 to 100%	80 to 100%	80 to 100%
CCCCCO[C@@H]1[C@@H](Cc2ccc(Cl)cc2Cl)COC[C@H](NC(=O)c2nccc(OC)c2OC(=O)CCOC)C(=O)O[C@H]1C [Compound F123]		80 to 100%		80 to 100%			80 to 100%
COc1ccnc(C(=O)N[C@H]2COC[C@H](Cc3ccc(F)cc3)[C@@H](OCC(C)C)[C@H](C)OC2=O)c1OCOC(C)=O [Compound F96]	80 to 100%	80 to 100%	80 to 100%	80 to 100%	80 to 100%	80 to 100%	80 to 100%
COc1ccnc(C(=O)N[C@H]2COC[C@H](Cc3ccc(C)cc3)[C@@H](OCC(C)C)[C@H](C)OC2=O)c1OC(C)=O [Compound F80]	80 to 100%	80 to 100%	80 to 100%	80 to 100%	80 to 100%	80 to 100%	80 to 100%
COc1ccnc(C(=O)N[C@H]2COC[C@H](CCc3ccccc3)[C@@H](OCC(C)C)[C@H](C)OC2=O)c1OCOC(C)=O [Compound F82]	80 to 100%	0 to 80%	80 to 100%	80 to 100%	80 to 100%	80 to 100%	
COc1ccnc(C(=O)N[C@H]2COC[C@H](Cc3ccc(F)cc3)[C@@H](OCC(C)C)[C@H](C)OC2=O)c1OC(C)=O [Compound F60]		80 to 100%	80 to 100%	80 to 100%	80 to 100%	80 to 100%	
COc1ccnc(C(=O)N[C@H]2COC[C@H](Cc3cccc4ccccc34)[C@@H](OC(=O)C(C)C)[C@H](C)OC2=O)c1OCOC(C)=O [Compound F83, (3S,6S,7R,8S)-3-(3-(acetoxymethoxy)-4-methoxypicolin-amido)-6-methyl-8-(naphthalen-1-ylmethyl)-4-oxo-1,5-dioxonan-7-yl isobutyrate]	80 to 100%	80 to 100%	80 to 100%	80 to 100%	80 to 100%	0 to 80%	80 to 100%
CCCCCO[C@@H]1[C@@H](Cc2ccc(Cl)cc2Cl)COC[C@H](NC(=O)c2nccc(OC)c2OCOC(=O)COCC)C(=O)O[C@H]1C [Compound F122]		80 to 100%		80 to 100%		0 to 80%	80 to 100%
COc1ccnc(C(=O)N[C@H]2COC[C@H](CCC(C)C)[C@@H](OCCCC(F)(F)F)[C@H](C)OC2=O)c1OCOC(C)=O [Compound F107]	80 to 100%	80 to 100%	80 to 100%	80 to 100%	80 to 100%	80 to 100%	0 to 80%
COc1ccnc(C(=O)N[C@H]2COC[C@H](Cc3ccc(Cl)cc3Cl)[C@@H](OC(=O)C(C)C)[C@H](C)OC2=O)c1OC(C)=O [Compound F73]	80 to 100%	80 to 100%	80 to 100%	80 to 100%	80 to 100%	0 to 80%	
COc1ccnc(C(=O)N[C@H]2COC[C@H](Cc3ccc(Cl)cc3Cl)[C@@H](OC(=O)C(C)C)[C@H](C)OC2=O)c1OCOC(C)=O [Compound F110]	80 to 100%	80 to 100%	80 to 100%	80 to 100%	80 to 100%	0 to 80%	
COc1ccnc(C(=O)N[C@H]2COC[C@H](CCC(C)C)[C@@H](OC(=O)C3CC3)[C@H](C)OC2=O)c1OCOC(C)=O [Compound F108]	80 to 100%	80 to 100%	80 to 100%	80 to 100%	80 to 100%	80 to 100%	80 to 100%
